Assay results reported in the supplement of paper PMC10307832.

Key:
Test in all cases: relative viability (nuclei count vs DMSO), 5 days (fraction); higher = more cells survive
[1] = compound: CCN(CC)CCNC(=O)c1c(C)[nH]c(/C=C2\C(=O)Nc3ccc(F)cc32)c1C [Sunitinib] + CC(C)C[C@H](NC(=O)[C@H](Cc1ccccc1)NC(=O)c1cnccn1)B(O)O [Bortezomib] (partner 0.002 µM)
Outline: (§1)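 Relative viability is defined as nuclei in treated wells over nuclei in vehicle wells. Duplicate plates were run and medians reported. Lung cancer cell lines in 1536-well plates were dosed by pin tool one day after seeding, with one drug or with a fixed anchor-drug dose plus five library-drug doses (not always all listed) in √10 steps, and nuclei were counted after 5 days.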

[2] = compound: CCN(CC)CCNC(=O)c1c(C)[nH]c(/C=C2\C(=O)Nc3ccc(F)cc32)c1C [Sunitinib] + CS(=O)(=O)CCNCc1ccc(-c2ccc3ncnc(Nc4ccc(OCc5cccc(F)c5)c(Cl)c4)c3c2)o1 [Lapatinib] (partner 2 µM)
Outline: as §1

[3] = compound: CCN(CC)CCNC(=O)c1c(C)[nH]c(/C=C2\C(=O)Nc3ccc(F)cc32)c1C [Sunitinib] + NC(=O)Nc1cc(-c2cccc(F)c2)sc1C(=O)N[C@H]1CCCNC1 [AZD7762] (partner 0.2 µM)
Outline: as §1

[4] = compound: CCN(CC)CCNC(=O)c1c(C)[nH]c(/C=C2\C(=O)Nc3ccc(F)cc32)c1C [Sunitinib] + Nc1ncn([C@H]2C[C@H](O)[C@@H](CO)O2)c(=O)n1 [Decitabine] (partner 2 µM)
Outline: as §1

| Cell Line | relative viability ([1]; first compound 0.02 µM) | relative viability ([1]; first compound 0.06325 µM) | relative viability ([1]; first compound 0.2 µM) | relative viability ([1]; first compound 0.6325 µM) | relative viability ([1]; first compound 2 µM) | relative viability ([2]; first compound 0.06325 µM) | relative viability ([2]; first compound 0.2 µM) | relative viability ([2]; first compound 0.6325 µM) | relative viability ([2]; first compound 2 µM) | relative viability ([3]; first compound 0.02 µM) | relative viability ([3]; first compound 0.06325 µM) | relative viability ([3]; first compound 0.2 µM) | relative viability ([3]; first compound 0.6325 µM) | relative viability ([3]; first compound 2 µM) | relative viability ([4]; first compound 0.02 µM) | relative viability ([4]; first compound 0.06325 µM) | relative viability ([4]; first compound 0.6325 µM) | relative viability ([4]; first compound 2 µM) | relative viability ([2]; first compound 0.02 µM) | relative viability ([4]; first compound 0.2 µM) |
| --- | --- | --- | --- | --- | --- | --- | --- | --- | --- | --- | --- | --- | --- | --- | --- | --- | --- | --- | --- | --- |
| 201T | 1.08 | 1.09 | 1.13 | 1.09 | 1.08 | 1.08 | 1.02 | 1.05 | 1.04 | 0.544 | 0.705 | 0.688 | 0.664 | 0.588 | 0.838 | 0.91 | 0.872 | 0.88 | – | – |
| A-427 | – | 0.987 | 0.976 | 0.986 | 0.936 | 1.12 | 1.11 | 1.16 | 1.08 | 0.773 | 0.761 | 0.777 | 0.711 | 0.679 | 0.547 | 0.591 | 0.539 | 0.625 | 1 | 0.57 |
| ABC-1 | 0.294 | 0.309 | 0.297 | 0.289 | 0.312 | 1.19 | 1.34 | 1 | 1.19 | 0.77 | 0.863 | 0.921 | 0.865 | 0.927 | 1.01 | 0.926 | 1.22 | 0.849 | 1.18 | 1.07 |
| BEN | 0.769 | 0.904 | 0.757 | 0.784 | 0.733 | 0.754 | 0.675 | 0.673 | 0.618 | 0.774 | 0.755 | 0.815 | 0.661 | 0.66 | 0.698 | 0.766 | 0.62 | 0.715 | 0.651 | 0.7 |
| CAL-12T | 1.04 | 1.06 | 1.07 | 1.21 | 1.05 | 0.77 | 0.67 | 0.807 | 0.665 | 0.648 | 0.663 | 0.65 | 0.731 | 0.76 | – | – | – | – | 0.687 | – |
| ChaGo-K-1 | 1.04 | 1.03 | 1.03 | 0.977 | 1.05 | – | – | – | – | 0.892 | 0.885 | 0.984 | 0.915 | 0.88 | 0.511 | 0.485 | 0.537 | 0.555 | – | 0.533 |
| EKVX | 1.07 | 1.04 | 1.18 | 1.06 | 1.09 | 0.227 | 0.193 | 0.233 | 0.241 | 0.755 | 0.783 | 0.735 | 0.688 | 0.716 | 0.352 | 0.384 | 0.382 | 0.412 | 0.213 | 0.45 |
| EMC-BAC-2 | 1.06 | 1.14 | 1.26 | 1.05 | 1.12 | 0.959 | 1.01 | – | 0.891 | 1.08 | 1.24 | 1.22 | 1.27 | 1.2 | 0.94 | 1.02 | – | 1.04 | 0.839 | 1.14 |
| EPLC-272H | 0.648 | 1.17 | 0.915 | 1.05 | 0.851 | 1.02 | 1.14 | 0.937 | 0.915 | 0.26 | 0.298 | 0.301 | 0.175 | 0.229 | 0.346 | 0.408 | 0.368 | 0.312 | 0.837 | 0.389 |
